From PubChem BioAssay AID2039 (NMMLSC, 2009)
Activity calls are given as the source filed them. No rule for the calls is given here.

Molecular target: Ras-related C3 botulinum toxin substrate 1 (Homo sapiens) (UniProt P63000)
Assay: activated mutant Rac1 GTP binding inhibitors, SAR follow-up, biochemical, additional analogs, multiplex bead flow cytometry (AID 2039)
Conditions: Multiplex flow cytometry bead GTP-binding assay; for Ki: measured here: Ki for Rac1 nucleotide binding

CC1=C(CC(=O)O)c2cc(F)ccc2/C1=C/c1ccc(S(C)=O)cc1 (configuration not stated)
EC50: inactive | Ki: 4240 nM

O=C1C(c2c(O)[nH]c3ccc(Br)cc23)=Nc2ccccc21
EC50: inactive | Ki: 1110 nM

CC(C(=O)O)c1cccc(Oc2ccccc2)c1 (configuration not stated)
EC50: inactive

O=C1C(c2c(O)[nH]c3ccccc23)=Nc2ccccc21
EC50: inactive

N#Cc1c(-c2ccc(Cl)cc2)c(C(=O)c2ccccc2)n(S(=O)(=O)c2ccc([N+](=O)[O-])cc2)c1N
EC50: inactive | Ki: 540 nM

O=C1Nc2ccccc2/C1=C1/Cc2ccccc2C1=O
EC50: inactive

O=Nc1c(-c2c(O)[nH]c3c(F)cccc23)[nH]c2ccccc12
EC50: inactive | Ki: 2870 nM

O=C(C#Cc1ccccc1)c1ccccc1
EC50: inactive

O=C1N=c2ccccc2=C1c1[nH]c(=O)[nH]c1O
EC50: inactive | Ki: 1060 nM

CC(=O)Oc1ccccc1C(=O)O
EC50: inactive

CCCCS(=O)(=O)n1c(N)c(C#N)c(-c2cc(OC)c(OC)c(OC)c2)c1C(=O)c1ccccc1
EC50: inactive

O=C1Nc2cccc(Br)c2/C1=C1/Cc2ccccc2C1=O
EC50: inactive

O=C(C#Cc1ccccc1)c1ccccc1[N+](=O)[O-]
EC50: inactive

COc1ccc(S(=O)(=O)n2c(N)c(C#N)c(-c3cc(Br)c(OC)c(OC)c3)c2C(=O)c2ccccc2)cc1
EC50: inactive

O=Nc1c(-c2c(O)[nH]c3c(Br)cccc23)[nH]c2ccccc12
EC50: inactive

COc1ccc(S(=O)(=O)n2c(N)c(C#N)c(-c3ccccc3)c2C(=O)c2ccc(Br)cc2)cc1
EC50: inactive

O=Nc1c(-c2c(O)[nH]c3ccc(Br)cc23)[nH]c2ccccc12
EC50: inactive | Ki: 2980 nM

O=Nc1c(-c2c(O)[nH]c3ccccc23)[nH]c2ccccc12
EC50: inactive

O=C1C(c2c(O)[nH]c3c(F)cccc23)=Nc2ccccc21
EC50: inactive

O=Nc1c(-c2c(O)[nH]c3c(Cl)cccc23)[nH]c2ccccc12
EC50: inactive

O=C1N=c2ccccc2=C1c1[nH]c(=S)[nH]c1O
EC50: inactive | Ki: 640 nM

COc1cc(-c2c(C#N)c(N)n(S(=O)(=O)c3c(C(C)C)cc(C(C)C)cc3C(C)C)c2C(=O)c2ccccc2)cc(OC)c1OC
EC50: inactive | Ki: 6050 nM

COc1ccc(-c2c(C#N)c(N)n(S(C)(=O)=O)c2C(=O)c2ccccc2)cc1Br
EC50: inactive

COc1ccc(S(=O)(=O)n2c(N)c(C#N)c(-c3cncc(Br)c3)c2C(=O)c2ccccc2)cc1
EC50: inactive | Ki: 1060 nM

CSc1ccc(/C=C2/C(C)=C(CC(=O)O)c3cc(F)ccc32)cc1
EC50: inactive | Ki: 4850 nM

O=C(C#Cc1ccccc1)c1ccc([N+](=O)[O-])cc1
EC50: 8370 nM | Ki: 760 nM

COc1ccc2cc(CC(=O)O)ccc2c1
EC50: inactive

O=C1C(c2c(O)[nH]c3c(Br)cccc23)=Nc2ccccc21
EC50: inactive | Ki: 2510 nM

O=C1C(c2c(O)[nH]c3c(Cl)cccc23)=Nc2ccccc21
EC50: inactive

O=C1Nc2c(Br)cccc2/C1=C1/Cc2ccccc2C1=O
EC50: inactive
